The subject of one assay is HSV-1. Nature of the assay: HSV-1 infection of Vero 76 cells, viral DNA detected by hybridization capture (chemiluminescence). Conditions: Human alphaherpesvirus 1, Vero 76. The class given is cell-based. The text has this:
In the following example, “MEM” means Minimal Essential Media; “FBS” means Fetal Bovine Serum; “NP40” and “Igepal” are detergents; “MOI” means Multiplicity of Infection; “NaOH” means sodium hydroxide; “MgCl2” means magnesium chloride; “dATP” means deoxyadenosine 5′ triphosphate; “dUTP” means deoxyuridine 5′ triphosphate; “dCTP” means dexoxycytidine 5′ triphosphate; “dGTP” means deoxyguanosine 5′ triphosphate; “GuSCN” means Guanidinium thiocyanate; “EDTA” means ethylenediamine tetraacetic acid; “TE” means Tris-EDTA; “SCC” means sodium chloride/sodium citrate; “APE” means a solution of ammonia acetate, ammonia phosphate, EDTA; “PBS” means phosphate buffered saline; and “HRP” means horseradish peroxidase.
Vero 76 cells were maintained in MEM with Earle's salts, L-glutamine, 8% FBS (Hyclone, A-1111-L) and 100 units/mL Penicillin-100 μg/mL Streptomycin. For assay conditions, FBS was reduced to 2%. Cells are seeded into 96-well tissue culture plates at a density of 5×10^4 cells/well after being incubated for 45 min at 37° C. in the presence of HSV-1 or HSV-2 (MOI=0.001). Test compounds are added to the wells and the plates are incubated at 37° C. for 40–48 hours. Cell lysates are prepared as follows: media was removed and replaced with 150 μL/well 0.2 N NaOH with 1% Igepal CA 630 or NP-40. Plates were incubated up to 14 days at room temperature in a humidified chamber to prevent evaporation.
For the detection probe, a gel-purified, digoxigenin-labeled, 710-bp PCR fragment of the HSV UL-15 sequence was utilized. PCR conditions included 0.5 μM primers, 180 μM dTTP, 20 μM dUTP-digoxigenin (Boehringer Mannheim 1558706), 200 μM each of dATP, dCTP, and dGTP, 1×PCR Buffer II (Perkin Elmer), 2.5 mM MgCl2, 0.025 units/μL of AmpliTaq Gold polymerase (Perkin Elmer), and 5 ng of gel-purified HSV DNA per 100 μL Extension conditions were 10 min at 95° C., followed by 30 cycles of 95° C. for 1 min, 55° C. for 30 sec, and 72° C. for 2 min. The amplification was completed with a 10-min incubation at 72° C. Primers were selected to amplify a 728 bp probe spanning a section of the HSV1 UL15 open reading frame (nucleotides 249–977). Single-stranded transcripts were purified with Promega M13 Wizard kits. The final product was mixed 1:1 with a mixture of 6 M GuSCN, 100 mM EDTA and 200 μg/mL herring sperm DNA and stored at 4° C.
The capture DNA plasmid (HSV UL13 region in pUC) was linearized by cutting with Xba I, denatured for 15 min at 95° C. and diluted immediately into Reacti-Bind DNA Coating Solution (Pierce, 17250, diluted 1:1 with TE buffer, pH 8) at 1 ng/μL 75 μL/well were added to Corning (#3922 or 9690) white 96-well plates and incubated at room temperature for at least 4 hrs before washing twice with 300 μL/well 0.2×SSC/0.05% Tween-20 (SSC/T buffer). The plates were then incubated overnight at room temperature with 150 μL/well 0.2 N NaOH, 1% IGEPAL and 10 μg/mL herring sperm DNA.
Twenty-seven (27) μL of cell lysate was combined with 45 μL of hybridization solution (final concentration: 3M GuSCN, 50 mM EDTA, 100 μg/ml salmon sperm DNA, 5×Denhardt's solution, 0.25×APE, and 5 ng of the digoxigenin-labeled detection probe). APE is 1.5 M NH4-acetate, 0.15 M NH4H2 phosphate, and 5 mM EDTA adjusted to pH 6.0. Mineral oil (50 μL) was added to prevent evaporation. The hybridization plates were incubated at 95° C. for 10 minutes to denature the DNA, then incubated at 42° C. overnight. The wells were washed 6× with 300 μL/well SSC/T buffer then incubated with 75 μL/well anti-digoxigenin-HRP-conjugated antibody (Boehringer Mannheim 1207733, 1:5000 in TE) for 30 min at room temperature. The wells were washed 6× with 300 μL/well with PBS/0.05% Tween-20 before 75 μL/well SuperSignal LBA substrate (Pierce) was added. The plates were incubated at room temperature for 30 minutes and chemiluminescence was measured in a Wallac Victor reader.
The following results were obtained for HSV-1.
Take `CCOP(=O)(NCCCCNc1cccc2c(-c3ccnc(NC4CCCC4)n3)c(-c3ccc(OC)cc3)nn12)OCC` [Example 89, Diethyl 4-{[3-[2-(cyclopentylamino)pyrimidin-4-yl]-2-(4-methoxyphenyl)pyrazolo[1,5-a]pyridin-7-yl]amino}butylamidophosphate]: the IC50 (commonly the midpoint of a concentration-inhibition curve) stood at 800 nM.

The assay is the same for the next values; noted with them: Human alphaherpesvirus 1; HSV-1 in Vero 76 cells, MOI=0.001, compounds incubated 40–48 hours at 37° C.; read-out: IC50.
In the case of `COc1ccc(-c2nn3c(NCC(=O)N4CCCC4)cccc3c2-c2ccnc(NC3CCCC3)n2)cc1` [Example 94, 3-[2-(Cyclopentylamino)-4-pyrimidinyl]-2-(4-methoxyphenyl)-N-[2-oxo-2-(1-pyrrolidinyl)ethyl]pyrazolo[1,5-a]pyridin-7-amine], the IC50 was 6200 nM.
Same read-out and setting: to `Nc1nccc(-c2c(-c3ccc(O)cc3)nn3c(N4CCCC4)cccc23)n1` [Example 6, 4-[3-(2-Amino-4-pyrimidinyl)-7-(1-pyrrolidinyl)pyrazolo[1,5-a]pyridin-2-yl]phenol] belongs 5000 nM; to `Cc1cccc(-c2nn3c(NC4CCCC4)cccc3c2-c2ccnc(NC3CCCC3)n2)c1` [Example 46, N-Cyclopentyl-3-[2-(cyclopentylamino)-4-pyrimidinyl]-2-(3-methylphenyl)pyrazolo[1,5-a]pyridin-7-amine], 200 nM; to `COc1ccc(-c2nn3c(NCCCCNC(=O)NS(=O)(=O)c4ccc(C)cc4)cccc3c2-c2ccnc(NC3CCCC3)n2)cc1` [Example 87, N-{[(4-{[3-[2-(Cyclopentylamino)pyrimidin-4-yl]-2-(4-methoxyphenyl)pyrazolo[1,5-a]pyridin-7-yl]amino}butyl)amino]carbonyl}-4-methylbenzenesulfonamide], 1000 nM.
The same measure, in the same setting: then `c1cc(NC2CCCC2)n2nc(-c3ccc(OCC4CC4)cc3)c(-c3ccnc(NC4CCCC4)n3)c2c1` [Example 11, N-Cyclopentyl-3-[2-(cyclopentylamino)-4-pyrimidinyl]-2-[4-(cyclopropyl-methoxy)phenyl]pyrazolo[1,5-a]pyridin-7-amine], with 300 nM; and `COc1ccc(-c2nn3c(NCCCCNC(=O)CCCC[C@@H]4SC[C@@H]5NC(=O)N[C@@H]54)cccc3c2-c2ccnc(NC3CCCC3)n2)cc1` [Example 82, 5-[(3aS,4S,6aR)-2-Oxohexahydro-1H-thieno[3,4-d]imidazol-4-yl]-N-(4-{[3-[2-(cyclopentylamino)pyrimidin-4-yl]-2-(4-methoxyphenyl)pyrazolo[1,5-a]pyridin-7-yl]amino}butyl)pentanamide], with 400 nM; and `c1ccc(-c2cccc(-c3nn4c(NC5CCCC5)cccc4c3-c3ccnc(NC4CCCC4)n3)c2)cc1` [Example 29, 2-[1,1′-Biphenyl]-3-yl-N-cyclopentyl-3-[2-(cyclopentylamino)-4-pyrimidinyl]pyrazolo[1,5-a]pyridin-7-amine], with 3000 nM.
The same measure, in the same setting: then `c1cc(NC2CC2)n2nc(-c3ccc(OCC4CC4)cc3)c(-c3ccnc(NC4CC4)n3)c2c1` [Example 72, N-Cyclopropyl-3-[2-(cyclopropylamino)-4-pyrimidinyl]-2-[4-(cyclopropylmethoxy)phenyl]pyrazolo[1,5-a]pyridin-7-amine], with 1400 nM; and `CCCCNc1nccc(-c2c(-c3ccc(-c4ccccc4)cc3)nn3c(NCCCC)cccc23)n1` [Example 15, 2-[1,1′-Biphenyl]-4-yl-N-butyl-3-[2-(butylamino)-4-pyrimidinyl]pyrazolo-[1,5-a]pyridin-7-amine], with 1000 nM; and `CC(C)COc1ccc(-c2nn3c(NC4CCCC4)cccc3c2-c2ccnc(NC3CCCC3)n2)cc1` [Example 10, N-Cyclopentyl-3-[2-(cyclopentylamino)-4-pyrimidinyl]-2-(4-isobutoxyphenyl)pyrazolo [1,5-a]pyridin-7-amine], with 900 nM.
`c1cc(-c2ccsc2)cc(-c2nn3c(NC4CCCC4)cccc3c2-c2ccnc(NC3CCCC3)n2)c1` [Example 32, N-Cyclopentyl-3-[2-(cyclopentylamino)-4-pyrimidinyl]-2-[3-(3-thienyl)phenyl]pyrazolo[1,5-a]pyridin-7-amine]: the 50% inhibitory concentration (IC50) stood at 600 nM.
The same measure, in the same setting: to `COc1ccc(-c2nn3c(NC4CCCC4)cccc3c2-c2ccnc(NC3CCCC3)n2)cc1` [Example 1, N-Cyclopentyl-3-[2-(cyclopentylamino)-4-pyrimidinyl]-2-(4-methoxyphenyl)-pyrazolo[1,5-a]pyridin-7-amine] belongs 300 nM.
As to `Nc1nccc(-c2c(-c3cccc(Br)c3)nn3c(NC4CCCC4)cccc23)n1` [Example 27, N-[3-(2-Amino-4-pyrimidinyl)-2-(3-bromophenyl)pyrazolo[1,5-a]pyridin-7-yl]-N-cyclopentylamine], the IC50 is 1500 nM.
Same read-out and setting: then `Brc1ccccc1-c1nn2c(NC3CCCC3)cccc2c1-c1ccnc(NC2CCCC2)n1` [Example 24, 2-(2-Bromophenyl)-N-cyclopentyl-3-[2-(cyclopentylamino)-4-pyrimidinyl]pyrazolo[1,5-a]pyridin-7-amine], with 900 nM.
Still for that read-out and setting: to `COc1ccc(-c2nn3c(NC4CCCC4)cccc3c2-c2ccnc(NC3CC3)n2)cc1` [Example 58, N-Cyclopentyl-3-[2-(cyclopropylamino)-4-pyrimidinyl]-2-(4-methoxyphenyl)pyrazolo[1,5-a]pyridin-7-amine] belongs 400 nM; to `O=C(O)c1cccc(-c2nn3c(NC4CCCC4)cccc3c2-c2ccnc(NC3CCCC3)n2)c1` [Example 41, 3-{7-(Cyclopentylamino)-3-[2-(cyclopentylamino)-4-pyrimidinyl]pyrazolo-[1,5-a]pyridin-2-yl}benzoic acid], 3500 nM.
Regarding `Oc1ccc(-c2nn3c(NC4CCCC4)cccc3c2-c2ccnc(NC3CCCC3)n2)cc1` [Example 4, 4-{7-(Cyclopentylamino)-3-[2-(cyclopentylamino)-4-pyrimidinyl]pyrazolo-[1,5-a]pyridin-2-yl}phenol], the half-inhibitory concentration (IC50) stood at 1000 nM.
Same read-out and setting: then `Nc1cccc(-c2nn3c(NC4CCCC4)cccc3c2-c2ccnc(NC3CCCC3)n2)c1` [Example 34, 2-(3-Aminophenyl)-N-cyclopentyl-3-[2-(cyclopentylamino)-4-pyrimidinyl]pyrazolo[1,5-a]pyridin-7-amine], with 600 nM; and `Fc1cccc(-c2nn3c(N4CCOCC4)cccc3c2-c2ccnc(NC3CCCC3)n2)c1` [Example 97, N-Cyclopentyl-4-[2-(3-fluorophenyl)-7-(4-morpholinyl)pyrazolo[1,5-a]pyridin-3-yl]-2-pyrimidinamine], with 700 nM; and `Cc1cccc(-c2nn3c(NC(C)C)cccc3c2-c2ccnc(NC3CCCC3)n2)c1` [Example 49, 3-[2-(Cyclopentylamino)-4-pyrimidinyl]-N-isopropyl-2-(3-methylphenyl)pyrazolo[1,5-a]pyridin-7-amine], with 500 nM.
Same read-out and setting: to `COc1ccc(-c2nn3c(NCCNS(C)(=O)=O)cccc3c2-c2ccnc(NC3CCCC3)n2)cc1` [Example 95, N-(2-{[3-[2-(Cyclopentylamino)-4-pyrimidinyl]-2-(4-methoxy-phenyl)pyrazolo[1,5-a]pyridin-7-yl]amino}ethyl)methanesulfonamide] belongs 300 nM; to `Fc1cccc(-c2nn3c(NC4CCCC4)cccc3c2-c2ccnc(NC3CCCC3)n2)c1` [Example 56, N-Cyclopentyl-3-[2-(cyclopentylamino)-4-pyrimidinyl]-2-(3-fluorophenyl)pyrazolo[1,5-a]pyridin-7-amine], 200 nM.

Values taken from patent US7153855B2, “Pyrazolopyridinyl pyrimidine therapeutic compounds” (SmithKline Beecham Corporation, priority 2001, dated 2006).
